From the supplement of paper PMC10307832

Assays:
Assay in all cases: relative viability (nuclei count vs DMSO), 5 days (fraction); higher = more cells survive
[1] = system: LC-2-ad
Method in brief: (§1)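 A single step with final 0.05% Triton X-100, 1% formaldehyde and 1 ug/ml Hoechst fixed the cells and stained nuclei 5 days after treatment. Lung cancer cell lines in 1536-well plates had been treated by pin tool the day after seeding with one drug alone or a fixed anchor-drug dose plus five library-drug doses (not always all listed) in √10 steps, and nuclei were counted on 4× images. Relative viability is the ratio of nuclei in treated wells to nuclei in vehicle wells, taken as the median of duplicate plates.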

[2] = system: HCC-827
Method in brief: as §1

[3] = system: NCI-H1755
Method in brief: as §1

[4] = system: NCI-H596
Method in brief: as §1

[5] = system: 201T
Method in brief: as §1

[6] = system: LU99A
Method in brief: as §1

[7] = system: RERF-LC-KJ
Method in brief: as §1

[8] = system: HCC-15
Method in brief: as §1

[9] = system: EKVX
Method in brief: as §1

[10] = system: NCI-H3122
Method in brief: as §1

[11] = system: NCI-H1993
Method in brief: as §1

[12] = system: NCI-H1975
Method in brief: as §1

[13] = system: HCC-366
Method in brief: as §1

[14] = system: COR-L 105
Method in brief: as §1

[15] = system: HCC-78
Method in brief: as §1

[16] = system: COR-L23
Method in brief: as §1

[17] = system: BEN
Method in brief: as §1

[18] = system: NCI-H1944
Method in brief: as §1

[19] = system: NCI-H1734
Method in brief: as §1

[20] = system: SK-LU-1
Method in brief: as §1

[21] = system: NCI-H1650
Method in brief: as §1

[22] = system: LXF-289
Method in brief: as §1

[23] = system: HARA
Method in brief: as §1

O=C(O)CCCCC(CCSCc1ccccc1)SCc1ccccc1 (centres undefined) [CPI-613] + C[C@@H](Oc1cc(-c2cnn(C3CCNCC3)c2)cnc1N)c1c(Cl)ccc(F)c1Cl [Crizotinib] (partner 1 µM)
relative viability ([1]; first compound 5 µM): 0.444 | relative viability ([1]; first compound 15.81 µM): 0.432 | relative viability ([1]; first compound 50 µM): 0.417 | relative viability ([1]; first compound 158.11 µM): 0.529 | relative viability ([1]; first compound 500 µM): 0.51 | relative viability ([2]; first compound 5 µM): 0.878 | relative viability ([2]; first compound 15.81 µM): 0.906 | relative viability ([2]; first compound 50 µM): 0.843 | relative viability ([2]; first compound 158.11 µM): 0.412 | relative viability ([2]; first compound 500 µM): 0.225 | relative viability ([3]; first compound 5 µM): 0.795 | relative viability ([3]; first compound 15.81 µM): 0.835 | relative viability ([3]; first compound 50 µM): 0.822 | relative viability ([3]; first compound 158.11 µM): 0.386 | relative viability ([3]; first compound 500 µM): 0.142 | relative viability ([4]; first compound 5 µM): 0.959 | relative viability ([4]; first compound 15.81 µM): 0.966 | relative viability ([4]; first compound 50 µM): 1.1 | relative viability ([4]; first compound 158.11 µM): 0.589 | relative viability ([4]; first compound 500 µM): 0.0472 | relative viability ([5]; first compound 5 µM): 1.04 | relative viability ([5]; first compound 15.81 µM): 0.989 | relative viability ([5]; first compound 50 µM): 0.94 | relative viability ([5]; first compound 158.11 µM): 0.93 | relative viability ([5]; first compound 500 µM): 0.984 | relative viability ([6]; first compound 5 µM): 0.618 | relative viability ([6]; first compound 15.81 µM): 0.546 | relative viability ([6]; first compound 50 µM): 0.589 | relative viability ([6]; first compound 158.11 µM): 0.168 | relative viability ([6]; first compound 500 µM): 0.0638 | relative viability ([7]; first compound 5 µM): 0.841 | relative viability ([7]; first compound 15.81 µM): 0.789 | relative viability ([7]; first compound 50 µM): 0.76 | relative viability ([7]; first compound 158.11 µM): 0.876 | relative viability ([7]; first compound 500 µM): 0.268 | relative viability ([8]; first compound 5 µM): 0.772 | relative viability ([8]; first compound 15.81 µM): 0.746 | relative viability ([8]; first compound 50 µM): 0.776 | relative viability ([8]; first compound 158.11 µM): 0.367 | relative viability ([8]; first compound 500 µM): 0.326 | relative viability ([9]; first compound 5 µM): 0.885 | relative viability ([9]; first compound 15.81 µM): 0.817 | relative viability ([9]; first compound 50 µM): 0.891 | relative viability ([9]; first compound 158.11 µM): 1.02 | relative viability ([9]; first compound 500 µM): 0.952 | relative viability ([10]; first compound 5 µM): 0.234 | relative viability ([10]; first compound 15.81 µM): 0.261 | relative viability ([10]; first compound 50 µM): 0.281 | relative viability ([10]; first compound 158.11 µM): 0.247 | relative viability ([10]; first compound 500 µM): 0.0651 | relative viability ([11]; first compound 5 µM): 0.862 | relative viability ([11]; first compound 15.81 µM): 0.852 | relative viability ([11]; first compound 50 µM): 1.01 | relative viability ([11]; first compound 158.11 µM): 0.639 | relative viability ([11]; first compound 500 µM): 0.438 | relative viability ([12]; first compound 5 µM): 0.931 | relative viability ([12]; first compound 15.81 µM): 0.982 | relative viability ([12]; first compound 50 µM): 0.945 | relative viability ([12]; first compound 158.11 µM): 0.499 | relative viability ([12]; first compound 500 µM): 0.0749 | relative viability ([13]; first compound 5 µM): 0.533 | relative viability ([13]; first compound 15.81 µM): 0.483 | relative viability ([13]; first compound 50 µM): 0.381 | relative viability ([13]; first compound 158.11 µM): 0.331 | relative viability ([13]; first compound 500 µM): 0.0154 | relative viability ([14]; first compound 5 µM): 0.727 | relative viability ([14]; first compound 15.81 µM): 0.772 | relative viability ([14]; first compound 50 µM): 0.753 | relative viability ([14]; first compound 158.11 µM): 0.242 | relative viability ([14]; first compound 500 µM): 0.169 | relative viability ([15]; first compound 5 µM): 0.346 | relative viability ([15]; first compound 15.81 µM): 0.318 | relative viability ([15]; first compound 158.11 µM): 0.348 | relative viability ([15]; first compound 500 µM): 0.331 | relative viability ([16]; first compound 5 µM): 0.635 | relative viability ([16]; first compound 15.81 µM): 0.598 | relative viability ([16]; first compound 50 µM): 0.647 | relative viability ([16]; first compound 158.11 µM): 0.226 | relative viability ([16]; first compound 500 µM): 0.0141 | relative viability ([17]; first compound 5 µM): 0.802 | relative viability ([17]; first compound 15.81 µM): 0.739 | relative viability ([17]; first compound 50 µM): 0.807 | relative viability ([17]; first compound 158.11 µM): 0.743 | relative viability ([17]; first compound 500 µM): 0.769 | relative viability ([18]; first compound 5 µM): 1.22 | relative viability ([18]; first compound 15.81 µM): 1.02 | relative viability ([18]; first compound 50 µM): 1.07 | relative viability ([18]; first compound 158.11 µM): 1.06 | relative viability ([18]; first compound 500 µM): 0.891 | relative viability ([19]; first compound 5 µM): 0.695 | relative viability ([19]; first compound 15.81 µM): 0.685 | relative viability ([19]; first compound 50 µM): 0.62 | relative viability ([19]; first compound 158.11 µM): 0.279 | relative viability ([19]; first compound 500 µM): 0.113 | relative viability ([20]; first compound 5 µM): 1.03 | relative viability ([20]; first compound 15.81 µM): 0.902 | relative viability ([20]; first compound 50 µM): 0.644 | relative viability ([20]; first compound 158.11 µM): 0.167 | relative viability ([20]; first compound 500 µM): 0.104 | relative viability ([21]; first compound 5 µM): 0.991 | relative viability ([21]; first compound 15.81 µM): 0.854 | relative viability ([21]; first compound 50 µM): 0.853 | relative viability ([21]; first compound 158.11 µM): 0.579 | relative viability ([21]; first compound 500 µM): 0.0088 | relative viability ([22]; first compound 5 µM): 0.776 | relative viability ([22]; first compound 15.81 µM): 0.764 | relative viability ([22]; first compound 50 µM): 0.73 | relative viability ([22]; first compound 158.11 µM): 0.295 | relative viability ([22]; first compound 500 µM): 0.0479 | relative viability ([23]; first compound 5 µM): 1.04 | relative viability ([23]; first compound 15.81 µM): 1.09 | relative viability ([23]; first compound 50 µM): 1.02 | relative viability ([23]; first compound 158.11 µM): 0.397 | relative viability ([23]; first compound 500 µM): 0.247
